Test results from US20090325960A1, “METHOD FOR TREATING INFLAMMATORY DISEASES USING RHO KINASE INHIBITOR COMPOUNDS” (priority 2008, published 2009).
Read-outs that look alike come from different tables or passages of the source.

Key:
ROCK1 = target: T1, ROCK1 (Homo sapiens, UniProt Q13464); assay: Rho kinase inhibition assay (IMAP fluorescence polarization), ROCK1; format: biochemical
T1 construct: purchased Upstate/Chemicon 14-601
Experimental: Following the pre-incubation, 10 μM ATP was added to initiate the reaction. After 60 minutes at room temperature, Molecular Devices IMAP™ binding solution was added to bind phosphorylated substrate. After 30 minutes of incubation in the presence of the IMAP™ beads, the fluorescence polarization was read and the ratio was reported as mP. IC50 values for compounds and EC50 values for ATP were calculated using the Prism software from Graphpad.

[1] = tested on: cytokine secretion from LPS-stimulated human monocytes; assay: Human monocyte cytokine secretion assay (LPS-stimulated); format: cell-based
Experimental: Peripheral blood from healthy human volunteers was collected and the monocytes isolated via Ficoll-paque density centrifugation. […] The cells were allowed to pre-incubate with test compound at the indicated concentration for 30 minutes (37° C., 5% CO2, humidified air); after which the supernatant was removed and media containing compound and 1 ng/mL LPS was added. Cells were allowed to incubate with compounds and LPS for 4 hours at 37° C. after which the supernatant was removed and stored at −80° C. Cytokine concentrations in the supernatant were determined using commercially available Bio-Rad Bio-Plex™ kits according the manufacturer's instructions.

[2] = tested on: A-10 rat thoracic aorta cells; assay: PDGF-stimulated smooth muscle cell proliferation assay (BrdU incorporation); format: cell-based
Experimental: Effects on cell proliferation were measured using a bromodeoxyuridine (BrdU) incorporation assay. […] Serum free media containing 0.1% BSA was added to the cells. 24 hours later the media was removed and replaced with warmed serum free media. […] Proliferation was then monitored using the BrdU Cell Proiferation Assay, HTS (Calbiochem cat. # HTS01). BrdU was allowed to incorporate into cells for 24 hours prior to the addition of fixative/denaturing solution and the fluorometric detection of incorporated BrdU using a BrdU antibody as per manufacturer's directions. Data are reported as a percent of the PDGF-stimulated BrdU incorporation.

Akt3 human enzyme = target: T2, Akt3 human enzyme (Homo sapiens, UniProt Q9Y243); assay: Akt3 inhibition assay (IMAP FP); format: biochemical
T2 construct: purchased Upstate Chemicon 14-502
T2 sequence (Q9Y243 whole entry): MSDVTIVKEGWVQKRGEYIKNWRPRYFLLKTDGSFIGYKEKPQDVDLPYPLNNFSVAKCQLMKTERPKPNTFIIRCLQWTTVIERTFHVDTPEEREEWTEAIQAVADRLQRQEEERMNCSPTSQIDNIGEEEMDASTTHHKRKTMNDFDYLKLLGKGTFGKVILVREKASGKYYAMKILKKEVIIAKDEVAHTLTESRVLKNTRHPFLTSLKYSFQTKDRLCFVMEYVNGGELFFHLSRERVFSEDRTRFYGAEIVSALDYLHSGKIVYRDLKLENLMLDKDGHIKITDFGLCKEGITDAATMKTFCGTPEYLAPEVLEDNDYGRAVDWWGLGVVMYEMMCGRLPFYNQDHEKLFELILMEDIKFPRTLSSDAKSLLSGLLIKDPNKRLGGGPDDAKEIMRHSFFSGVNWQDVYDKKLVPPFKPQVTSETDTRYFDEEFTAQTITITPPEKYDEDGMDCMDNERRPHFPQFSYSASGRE
Experimental: (§3) Inhibition of Akt3 and p70S6K activity was determined using the IMAP™ FP Progressive Binding Kit (Molecular Devices product number R8127). […] Following the pre-incubation, 30 μM ATP was added to initiate the reaction. After 60 minutes at RT, Molecular Devices IMAP™ binding solution was added to bind phosphorylated substrate. After 30 minutes of incubation in the presence of the IMAP™ beads the fluorescence polarization was read and the ratio was reported as mP. IC50 results were calculated using the Prism software from Graphpad. The Ki values were determined according to the following formula: Ki=IC50/(1+([ATP Challenge]/EC50 ATP)).

p70S6K human enzyme = p70S6K human enzyme (Homo sapiens, UniProt P23443, T412E); assay: p70S6K inhibition assay (IMAP FP); format: biochemical
p70S6K human enzyme, sequence (P23443 whole entry T412E): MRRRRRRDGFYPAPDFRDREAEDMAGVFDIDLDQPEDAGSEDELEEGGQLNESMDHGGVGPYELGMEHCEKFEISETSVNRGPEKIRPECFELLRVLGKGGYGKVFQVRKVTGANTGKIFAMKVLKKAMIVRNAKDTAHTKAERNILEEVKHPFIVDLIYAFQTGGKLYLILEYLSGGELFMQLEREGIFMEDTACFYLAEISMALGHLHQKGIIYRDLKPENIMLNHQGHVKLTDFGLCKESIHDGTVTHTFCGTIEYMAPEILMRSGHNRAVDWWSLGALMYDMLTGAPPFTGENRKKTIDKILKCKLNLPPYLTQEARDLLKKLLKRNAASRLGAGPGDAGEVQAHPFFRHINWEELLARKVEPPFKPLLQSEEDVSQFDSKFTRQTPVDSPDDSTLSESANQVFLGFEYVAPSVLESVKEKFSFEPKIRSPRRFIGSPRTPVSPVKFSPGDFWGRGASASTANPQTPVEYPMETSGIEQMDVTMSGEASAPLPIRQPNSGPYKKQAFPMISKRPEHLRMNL
Experimental: as §3

[3] = Compound plasma concentrations in unsensitized mice at 15 min post administration; format: in vivo; details: mouse, 15 μmol/kg; mean plasma concentration in mice at 15 minutes post oral administration; read-out: Mouse Oral PK
[4] = tested on: VEGF-induced angiogenesis; details: 100 μM; cited from earlier work
[5] = tested on: monocytes, endothelial cells, and lymphocytes; details: cited from earlier work
human neutrophils = assay: Human neutrophil chemotaxis (fMLP-induced, Boyden chamber); format: cell-based; details: average
Experimental: Peripheral blood from healthy human volunteers was collected and the neutrophils were isolated by Ficoll-paque density centrifugation followed by dextran sedimentation and hypotonic lysis of the red blood cells. Neutrophil chemotaxis was assessed using a modified Boyden Chamber (Neuroprobe, 96-well) with a 3 μm pore polycarbonate membrane. The ability of the tested compounds to block chemotaxis induced by a 1 μM fMLP challenge during a one hour incubation at 37° C. with 5% CO2 was assessed in a dose response manner.

[6] = tested on: ova-sensitized, ova-challenged BALB/c mice; assay: Prevention of airway hyperreactivity (Penh, methacholine) in mouse ovalbumin sensitization model; format: in vivo; details: for airway hyperreactivity: intratracheal once a day
Experimental: The anti-inflammatory dosing paradigm consists of dosing the animals once a day starting on day 27 and finishing on either day 30 or 31 (1 hr prior to the aerosolized ovalbumin challenges on days 28 to 30) but not on day 32 when hyperreactivity evaluation occurs. […] Exposure to the methacholine doses consisted of a 3 minute period during which a nebulizer was aerosolizing the methacholine and an additional 3 minute period following the cessation of nebulization. […] Enhanced pause (Penh), a unitless index of airway hyperreactivity, is derived from the expiratory side of the respiratory waveform measured via the plethysmograph and is used as an indirect measure of airway resistance and hyperreactivity. […] Following the methacholine dose response, BALF was collected and all animals were anesthetized, bled and euthanized. […] The Penh value at each of the dose levels of methacholine represents the 6-minute average response. Change from baseline (CFB) in Penh was calculated at each methacholine dose and the area under the curve (AUC) for these CFB values was calculated using the trapezoidal rule. This same approach was applied for each mouse across multiple experiments. […] Data from equal experimental conditions across experiments performed on different days were pooled for statistical analysis and data reporting. […] A random intercept for each experiment was assumed to account for possible similarities of the results obtained from a given experiment (i.e., as a “blocking effect”). […] For FIG. 11, linear AUC values from compound treated mice were reported as a percent of linear AUC values from vehicle-treated ovalbumin-sensitized/ovalbumin-challenged (asthmatic) mice.

[7] = tested on: LPS-challenged BALB/c mice; assay: LPS-induced neutrophilia and cytokine production assay; format: in vivo, mouse; details: for IL-1β levels in BALF: intratracheal administration, LPS-challenged animals
Experimental: Male BALB/c mice, approximately 19 to 21 grams, were ordered from Charles River Laboratories (Raleigh, N.C.). All animals were challenged with aerosolized LPS (10 μg/ml) for 25 minutes on study day 0. LPS aerosol was generated using an Aerogen Aeroneb nebulizer and controller providing a flow of 400 μl/min and a particle size of 2-4 μm MMAD. Rolipram was administered i.p at 20 mg/kg. […] Four hours following LPS challenge, BALF was collected using a total of 3 ml of 0.9% sodium chloride containing 10% fetal calf serum. Total cell counts were determined using the Coulter Counter. For differential evaluations, BALF was centrifuged and cytospin slides prepared and stained with Hema3 stain. Manual leukocyte counts were then completed on 200 cells. The final concentration of individual leukocyte cell types per ml of BALF was determined by multiplication of the relative percentage of individual leukocytes with the total amount of cells/ml of BALF fluid. The concentration of IL-1β in the BALF samples was determined using commercially available Bio-plex kits (Bio-Rad). The analysis of cytokine levels was measured using the Bio-Plex 200 (Bio-Rad) system according to the manufacturer's instructions.

ERK1 = target: T3, ERK1 (Homo sapiens, UniProt P27361); assay: Kinase panel screen (KinaseProfiler), ERK1; format: biochemical; details: 1 μM test compound, 10 μM ATP
T3 construct: purchased Upstate, Millipore Bioscience Division (KinaseProfiler service)
T3 sequence (P27361 whole entry): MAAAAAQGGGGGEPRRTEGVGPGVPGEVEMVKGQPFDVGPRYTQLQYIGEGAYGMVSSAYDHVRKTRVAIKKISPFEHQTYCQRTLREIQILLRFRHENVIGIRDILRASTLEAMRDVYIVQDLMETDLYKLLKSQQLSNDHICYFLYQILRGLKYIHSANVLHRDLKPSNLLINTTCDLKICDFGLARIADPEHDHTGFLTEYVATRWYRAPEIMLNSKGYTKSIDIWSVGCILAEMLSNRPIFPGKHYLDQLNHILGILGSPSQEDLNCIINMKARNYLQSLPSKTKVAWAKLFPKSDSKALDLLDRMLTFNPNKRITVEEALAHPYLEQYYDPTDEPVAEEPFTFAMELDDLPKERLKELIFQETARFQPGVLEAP
Experimental: (§1) Compounds of Formulae I and II were examined for activity against a selected panel of kinases using the KinaseProfiler™ enzyme profiling services (Upstate, Millipore Bioscience Division). Percent kinase activity at 10 μM and 1 μM test compound and 10 μM ATP was determined against 40 wild-type recombinant human kinases according to Upstate's standard protocol: ASK1, BTK, CSK, c-RAF, GCK, GSK3β, IKKα, IKKβ, IRAK1, IRAK4, JNK1α1, JNK2α2, JNK3, ERK1, ERK2, MAPKAP-K2, MAPKAP-K3, MEK1, MKK4, MKK6, MKK7β, Mnk2, MSK1, PAK3, PDK1, PRAK, ROCK1, Rsk2, SAPK2a, SAPK2b, SAPK3, SAPK4, SRPK1, SRPK2, Syk, TAK1, TBK1, PI3-Kβ, PI3-Kγ, PI3-Kδ.

ERK2 = target: T4, ERK2 (Homo sapiens, UniProt P28482); assay: Kinase panel screen (KinaseProfiler), ERK2; format: biochemical; details: 1 μM test compound, 10 μM ATP; read-out: Percent inhibition ERK2 at 1 μM
T4 construct: purchased Upstate, Millipore Bioscience Division (KinaseProfiler service)
T4 sequence (P28482 whole entry): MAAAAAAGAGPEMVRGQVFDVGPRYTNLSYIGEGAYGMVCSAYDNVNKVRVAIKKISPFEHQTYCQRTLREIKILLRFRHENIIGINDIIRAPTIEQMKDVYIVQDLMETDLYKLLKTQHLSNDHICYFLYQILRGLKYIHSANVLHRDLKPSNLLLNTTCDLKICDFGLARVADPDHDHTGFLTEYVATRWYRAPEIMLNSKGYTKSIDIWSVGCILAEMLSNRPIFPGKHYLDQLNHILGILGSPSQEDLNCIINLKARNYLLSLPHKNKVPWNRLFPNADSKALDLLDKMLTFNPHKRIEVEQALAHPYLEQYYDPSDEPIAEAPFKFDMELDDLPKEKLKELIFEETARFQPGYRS
Experimental: as §1

Mnk2 = target: T5, Mnk2 (Homo sapiens, UniProt Q9HBH9); format: biochemical
T5 construct: purchased Upstate, Millipore Bioscience Division (KinaseProfiler service)
T5 sequence (Q9HBH9 whole entry): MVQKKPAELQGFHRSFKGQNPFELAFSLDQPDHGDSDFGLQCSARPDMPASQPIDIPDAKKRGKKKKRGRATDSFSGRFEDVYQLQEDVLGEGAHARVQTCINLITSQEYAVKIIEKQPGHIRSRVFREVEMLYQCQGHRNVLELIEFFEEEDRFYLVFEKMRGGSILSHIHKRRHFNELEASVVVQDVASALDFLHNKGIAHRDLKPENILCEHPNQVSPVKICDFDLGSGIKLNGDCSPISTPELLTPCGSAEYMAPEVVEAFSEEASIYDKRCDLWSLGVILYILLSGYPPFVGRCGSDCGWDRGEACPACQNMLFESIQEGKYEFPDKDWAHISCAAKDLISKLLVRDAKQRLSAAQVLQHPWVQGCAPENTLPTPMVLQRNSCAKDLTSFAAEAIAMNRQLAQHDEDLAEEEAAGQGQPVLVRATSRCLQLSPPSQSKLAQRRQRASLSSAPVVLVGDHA
Experimental: as §1

murine eosinophils = assay: Murine eosinophil chemotaxis (eotaxin-induced); format: cell-based, mouse; details: 10 nM eotaxin challenge
Experimental: Mouse Eosinophil Isolation: Bronchoalveolar lavage was collected from ovalbumin sensitized and challenged mice in a volume of 2.5 mL lavage buffer. The lavage buffer was 0.9% saline with 10% fetal bovine serum. The pooled lavages were maintained on ice until use. The murine eosinophils were isolated using MACS cell separation (Miltenyi Biotech) by depletion of B cells and T cells by positive selection following incubation with antibody conjugated magnetic beads specific for CD45-R (B220) and CD90 (Thy 1.2), which bind B cells and T cells, respectively.
(§2) In Vitro Chemotaxis: Eosinophil chemotaxis was assessed using a modified Boyden Chamber (Neuroprobe, 96-well) with a 5 μm pore membrane. The ability of the tested compounds to block chemotaxis induced by a 10 nM eotaxin challenge (mouse) or 1 nM eotaxin challenge (human) during one hour incubation at 37° C. with 5% CO2 was assessed.

human eosinophils = assay: Human eosinophil chemotaxis (eotaxin-induced); format: cell-based; details: 1 nM eotaxin challenge
Description: Human Eosinophil Isolation: Peripheral blood from healthy human volunteers was collected and the PMNs separated via Ficoll-paque density centrifugation followed by hypotonic lysis of the red blood cells. Subsequently, the human eosinophils were isolated from the cell suspension via StemCell Technologies Human Eosinophil Enrichment kit (Cat. No 19256) according to the manufacturer's recommendations. Briefly, unwanted cells were specifically labeled with dextran-coated magnetic nanoparticles using bispecific Tetrameric Antibody Complexes (TAC) directed against cell surface antigens on human blood cells: CD2, CD3, CD14, CD16, CD19, CD20CD36, CD56, CD123, glycophorin A and dextran. The unwanted cells are then separated from the unlabelled eosinophils using the EasySep® magnetic isolation procedure.
as §2

[8] = tested on: ova-sensitized, ova-challenged BALB/c mice; assay: In vivo anti-inflammatory activity, mouse ovalbumin sensitization model (BALF cells and cytokines)
Experimental: Upon arrival, the animals were randomized into groups of five males per cage and assigned to a dosing group. Animals were quarantined for 7 days under test conditions. […] Animals were sensitized on day 0 and 14 of study by an intraperitoneal injection with 20 μg of ovalbumin (ova) and 2.0 mg aluminum hydroxide (alum) which initiates the development of a specific T-helper (Th) cells type 2 resulting in asthmatic animals (denoted as Ova in the fugures). One group of animals received an injection of saline to use as control animals (denoted as normal in the figures). […] Aerosol challenge consists of using an Aerogen Aeroneb nebulizer and controller with a particle size of 4-6 μm mass median aerodynamic diameter (MMAD) with a distribution of 400 μl per minute. This aerosol challenge is necessary to target the Th2-driven allergic inflammation in the lower airways.
The anti-inflammatory dosing paradigm (FIG. 5) was utilized to evaluate the anti-inflammatory effects of experimental compounds. […] On day 32 of the experiment, after measurement of airway hyperreactivity, BALF was collected and all animals were anesthetized, bled and euthanized.
Bronchoalveolar lavage fluid (BALF) was collected by infusing 3.0 ml of saline with 10% fetal calf serum into the lungs via the trachea and then withdrawing the fluid. The total amount of cells/ml of BALF fluid was determined via manual cell count on hemocytometer. The BALF was centrifuged, supernatant removed and analyzed for cytokine concentrations as described below, and cell pellet reconstituted in 500 μL of fluid. Cytospin slides were prepared from the cell pellet using 100 μL of fluid and spinning samples for 5 minutes at 5000 rpms in a cytospin centrifuge, Following Hema3 stain, relative percentages of individual leukocytes were determined on a 200 cell count for each sample. The final concentration of individual leukocyte cell types per ml of BALF was determined by multiplication of the relative percentage of individual leukocytes with the total amount of cells/ml of BALF fluid.
The concentrations of cytokines in the BALF samples were determined using commercially available Bio-plex kits (Bio-Rad) for the detection of mouse IL-5, IL-13, and Eotaxin. The analysis of cytokine levels was measured using the Bio-Plex 200 (Bio-Rad) system according to the manufacturer's instructions.

[9] = Rat oral pharmacokinetics (plasma); format: in vivo; details: rat oral PK, mean of n = 3 rats
Experimental: Plasma (EDTA K2 anticoagulant) was collected from male, cannulated, CD Sprague Dawley rats to determine the pharmacokinetics of formulations containing compound inhibitors of Rho kinase. Each animal was dosed orally with a 4 ml/kg solution or suspension of each test compound in 10 mM acetate buffered saline, pH 4.5 at a final concentration range of 20-30 mol/kg. Blood was collected at 0.25, 0.5, 1, 2, 4, 6, 8, and 24 hours. Plasma samples were assayed for the concentration of the test compound using an on-line, solid phase extraction LC/MS/MS analysis system.
Pharmacokinetic analyses were performed using WinNonlin software version 5.2 (Pharsight Corporation, Mountain View, Calif.).
As determined from the plasma concentration versus time curves, the time to peak and peak exposure are represented by the values Tmax and Cmax, respectively. The AUC values (nM*hr) shown were calculated as the areas under the plasma concentration versus time curves from time zero through the time of the last observable value and represent the total exposure of the compound over the course of the study. Half-life values or the amount of time required for the plasma levels of the compound to decline to half the initial value are represented as t1/2.

[10] = Compound concentrations in lungs of ova-sensitized mice post IP, PO and IT administration; format: in vivo; details: male, Balb/c, mouse, lung, other: intratracheal (IT), BD model, IT 5 μmol/kg, read-out: Lung, nM (plasma corrected lung concentration)
Experimental: Additionally, compound concentrations were determined in the plasma and lungs of male, ovalbumin-sensitized, Balb/c mice from a murine model of asthma. Test compounds were formulated in water or 1% polysorbate 80 and dosed at 15 μmol/kg for intraperitoneal (IP) or oral (PO) administration or formulated for intratracheal (IT) administration and dosed at 5 μmol/kg, which directly targets the lungs. Following completion of the in vivo study, mice were euthanized and blood and plasma collected approximately 2.5-3 hours post administration of test compound for bronchodialator (BD) studies and 24 hours post administration for anti-inflamatory (AI) studies. Lungs were homogenized in Matrix A lysing tubes using a FastPrep 24 tissue and cell homogenizer (MP Biomedicals, Solon, Ohio). Both plasma samples and lung extracts were assayed for compound concentrations using an on-line, solid phase extraction LC/MS/MS system. The actual lung tissue concentrations of each compound in mouse were extrapolated from the lung and plasma concentrations, data are shown in Table 11. The results of a set of experiments using unsensitized mice and collecting only plasma 15 minutes post administration of test compounds are shown in Table 12.

[11] = 10 μM of test compound, 1 ng/mL LPS, 4 hours, read-out: IL-1β % (Percent inhibition values for inhibition of cytokine secretion)
[12] = read-out: IL-6 % (Percent inhibition values for inhibition of cytokine secretion), 10 μM of test compound, 1 ng/mL LPS, 4 hours
[13] = 15 μmol/kg/oral on days 27 to 31

T1 sequence (Q13464 17-535 limits assumed): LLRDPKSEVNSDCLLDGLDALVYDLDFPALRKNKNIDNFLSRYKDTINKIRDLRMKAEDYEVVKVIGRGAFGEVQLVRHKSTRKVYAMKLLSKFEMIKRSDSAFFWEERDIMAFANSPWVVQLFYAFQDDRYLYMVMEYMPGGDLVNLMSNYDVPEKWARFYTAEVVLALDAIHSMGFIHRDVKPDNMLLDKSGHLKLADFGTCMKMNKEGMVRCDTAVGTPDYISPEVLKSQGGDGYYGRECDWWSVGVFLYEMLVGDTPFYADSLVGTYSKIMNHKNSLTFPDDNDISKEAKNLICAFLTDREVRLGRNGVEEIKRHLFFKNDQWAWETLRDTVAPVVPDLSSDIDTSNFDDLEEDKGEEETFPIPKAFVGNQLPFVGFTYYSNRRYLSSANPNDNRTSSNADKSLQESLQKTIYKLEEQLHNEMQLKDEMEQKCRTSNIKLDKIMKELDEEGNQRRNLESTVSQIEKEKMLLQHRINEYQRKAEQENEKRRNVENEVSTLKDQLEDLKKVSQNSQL

Work on `Cc1ccc(CN2CC[C@@H](Nc3cccc4cnccc34)C2)cc1OCCO` [Compound 2.064, (R)-2-(5-((3-(isoquinolin-5-ylamino)pyrrolidin-1-yl)methyl)-2-methylphenoxy)ethanol] yielded a Ki (ROCK1) of 0.0041 µM, a Ki (ROCK1; read-out: ROCK1 Ki, average) of 0.0041 µM and an activity at 10 µM [1, 11] of 14.3%. For the same compound, the activity at 10 µM ([1]; 10 μM of test compound, 1 ng/mL LPS, 4 hours, read-out: TNF-α % (Percent inhibition values for inhibition of cytokine secretion)) was 66.2%, the activity at 10 µM [1, 12] was 45.7% and the “Percent of PDGF Induced Proliferation at 1 μM Avg” value ([2]; 1 μM, 10 ng/mL PDGF) was 53.1%. The “Percent of PDGF Induced Proliferation at 10 μM Avg” value ([2]; 10 μM, 10 ng/mL PDGF) was 56.2%, the “Proliferation at 1 μM” value ([2]; average percent of PDGF stimulated proliferation at 1 μM test compound) was 53.1% and the “Proliferation at 10 μM” value ([2]; average percent of PDGF stimulated proliferation at 10 μM test compound) was 56.2%. For the same compound, the Ki (Akt3 human enzyme; average, read-out: Akt3 Ki) was 0.382 µM, the Ki (Akt3 human enzyme; read-out: Akt3 Ki, Avg) was 0.382 µM and the Ki (p70S6K human enzyme; average, read-out: p70S6K Ki) was 0.178 µM. It also gave a Ki (p70S6K human enzyme; read-out: p70S6K Ki, Avg) of 0.178 µM and a concentration at 15 min [3] of 0.202 µM.
For `O=S(=O)(c1cccc2cnccc12)N1CCCNCC1` [Fasudil], the new vessel formation [4] is given as “new vessel formation was prevented” and the “expression of IL-1β, TNFα, and various other cytokines” value [5] is given as “suppress expression”.
`CS(=O)(=O)Nc1cccc(CN2CCC[C@@H](Nc3ccc4[nH]ncc4c3)C2)c1` [Compound 1.093, (R)-N-(3-((3-(1H-indazol-5-ylamino)piperidin-1-yl)methyl)phenyl)methanesulfonamide] showed an IC50 (human neutrophils) of 363 µM.
With `NC(=O)Cn1ccc2cc(CN3CC[C@@H](Nc4cccc5cnccc45)C3)ccc21` [Compound 2.059, (R)-2-(5-((3-(isoquinolin-5-ylamino)pyrrolidin-1-yl)methyl)-1H-indol-1-yl)acetamide] the airway hyperreactivity ([6]; days 27 to 31) was “prevention of airway hyperreactivity”, the activity at 10 µM [1, 12] was 0% and the “IL-1β levels in BALF” value [7] was “reduction in IL-1β”. The Percent inhibition at 1 µM (ERK1) was about 50%, the activity at 1 µM (ERK2) was about 50% and the “Percent inhibition Mnk2 at 1 μM” value (Mnk2) was 49.
In the case of `CS(=O)(=O)Nc1cccc(CN2CC[C@@H](Nc3cccc4cnccc34)C2)c1` [Compound 2.038, (R)-N-(3-((3-(isoquinolin-5-ylamino)pyrrolidin-1-yl)methyl)phenyl)methanesulfonamide], the “inhibition of eotaxin-induced murine eosinophil chemotaxis” value (murine eosinophils) is reported as “inhibited”, the “inhibition of eotaxin-induced human eosinophil chemotaxis” value (human eosinophils) is reported as “inhibited” and the “concentration of Eotaxin in BALF” value [8, 13] is reported as “reduced levels”. For the same compound, the “concentration of IL-5 in BALF” value [8, 13] was “reduced levels”, the “concentration of IL-13 in BALF” value [8, 13] was “reduced levels” and the “airway eosinophil infiltration (eosinophils per ml of BALF)” value ([8]; dosed orally to day 31, anti-inflammatory dosing paradigm) was “reduced”. The “airway hyperreactivity to metacholine on Day 32” value ([6]; oral 15 μMol/kg once a day, days 27 to 31) was “prevention of airway hyperreactivity”.
With `CS(=O)(=O)Nc1cccc(CN2CCC[C@H](Nc3ccc4[nH]ncc4c3)C2)c1` [Compound 1.091, (S)-N-(3-((3-(1H-indazol-5-ylamino)piperidin-1-yl)methyl)phenyl)methanesulfonamide] the “eosinophil influx (BALF)” value ([8]; dosed i.t. to day 30, anti-inflammatory dosing paradigm) was “reduction of eosinophils”, the airway hyperreactivity ([6]; days 27 to 30) was “prevention of airway hyperreactivity” and the activity at 10 µM [1, 11] was 166%. For the same compound, the “IL-1β levels in BALF” value [7] was “reduction in IL-1β”, the “LPS-induced pulmonary neutrophilia influx (BALF)” value ([7]; intratracheal dosing one hour prior to LPS challenge) was “significant reduction” and the Cmax [9] was “BLQ”. For the same compound, the Tmax [9] was “BLQ”, the Vz_F [9] was “BLQ” and the t½ [9] was “BLQ”. The “AUC (0-last)” value ([9]; time zero through last observable value) was “BLQ” and the concentration at 2.5 h [10] was 123 nM.
